In the OPERA property sets (Mansouri et al. 2018):

details: not given

SMILES | melting point [°C] | boiling point [°C] | log10 Henry constant (atm·m³/mol) | log10 vapour pressure (mmHg) | ready biodegradability | log10 Koa | log10 Koc (L/kg)
CN(C)C1=NC(=O)C(c2ccccc2)O1 (stereo not drawn) | 134 | – | – | – | – | – | –
N#CCC(=O)c1ccc(N)cc1 | 159 | – | – | – | – | – | –
COc1ccc(C)cc1C | – | 192 | – | – | – | – | –
C[Si](C)(C)c1ccccc1 | – | 170 | – | – | – | – | –
Nc1cccc(Cl)c1 | -10.4 | 230 | -6 | -1.18 | not readily biodegradable | – | –
CCC(=O)CCC(C)C | – | 164 | – | – | – | – | –
CCCCCC(=O)OCCC(C)C | – | 226 | – | – | – | – | –
Cc1c(C)c2c3ccccc3ccc2c2ccccc12 | 129 | – | – | – | – | – | –
CCCCC=O | -91.5 | 103 | -3.83 | 1.42 | – | – | –
Clc1ccc(-c2ccccc2Cl)cc1 | – | – | -3.64 | -2.68 | – | 7.4 | 4.34
C1CC2CCCC2C1 (stereo not drawn) | – | 139 | – | – | – | – | –
COc1cccc2cccnc12 | 49.5 | 283 | – | – | – | – | –
CC1=C(O)C(=O)[C@@H]2O[C@@H]2C1=O | 127 | – | – | – | – | – | –
CN(CC(=O)O)C(=O)COC(=O)c1ccccc1 | 106 | – | – | – | – | – | –
CC[C@@]12CCCN(CCc3c([nH]c4ccccc34)CC1)C2 | 146 | – | – | – | – | – | –
NN(c1ccccc1)c1ccccc1 | 50.5 | – | – | -3.31 | – | – | –
COC(=O)c1ccccn1 | 18.7 | – | – | – | – | – | –
CCCCCCCCOc1ccccc1 | 8 | 285 | – | – | – | – | –
CC=CC(=O)OC(=O)C=CC | – | 247 | – | – | – | – | –
COC | -142 | -24.8 | – | 3.65 | not readily biodegradable | 1.37 | –

SMILES | melting point [°C] | boiling point [°C] | log10 Henry constant (atm·m³/mol) | log10 vapour pressure (mmHg) | ready biodegradability | log10 Koa | log10 Koc (L/kg)
FCCCCBr | – | 135 | – | – | – | – | –
CCC(=O)Oc1ccc(/C(CC)=C(\CC)c2ccc(OC(=O)CC)cc2)cc1 | 104 | – | – | – | – | – | –
Nc1ccccc1Cl | -14 | 209 | – | -0.69 | not readily biodegradable | – | –
Cc1ccc(C(=O)NS(=O)(=O)c2ccc(N)cc2)cc1C | 222 | – | – | – | – | – | –
CC(C)(C(N)=O)n1nnc2ccccc21 | 187 | – | – | – | – | – | –
CC12CCC(CC1)C(C)(C)O2 | 1.5 | 176 | – | 0.279 | – | – | –
Cc1cccc(F)c1 | -87 | 115 | – | 1.34 | – | – | –
Oc1ccc2c(c1)[C@@]13CCCC[C@@]1(O)[C@@H](C2)N(CC1CCC1)CC3 | 216 | – | – | – | – | – | –
Nc1ccc(-c2ccc(N)cc2Cl)c(Cl)c1 | 165 | – | – | – | – | – | –
O=C(O)c1ccc(C(=O)O)c2c(C(=O)O)ccc(C(=O)O)c12 | 320 | – | – | – | – | – | –
COC(=O)C1(S(=O)(=O)c2ccccc2)CCCC1 | 56.5 | – | – | – | – | – | –
Cc1ccc([N+](=O)[O-])cc1S(=O)(=O)O | – | – | – | – | not readily biodegradable | – | –
CCCN(CC)CC1COC2(CCC(C(C)(C)C)CC2)O1 (stereo not drawn) | – | – | – | -3.89 | – | – | –
C=CCOC(=O)CC(C)=O | -85 | 196 | – | – | – | – | –
CC(Cl)[N+](=O)[O-] (stereo not drawn) | – | 124 | – | – | – | – | –
CCc1ccc(C(=O)NN(C(=O)c2cc(C)cc(C)c2)C(C)(C)C)cc1 | 191 | – | – | -7.65 | – | – | –
Clc1cccc2ccccc12 | -2.5 | 259 | -3.45 | -1.54 | not readily biodegradable | 5.8 | –
Oc1ccc(F)c(F)c1F | 32 | – | – | – | – | – | –
C=C(C)[C@@H]1CC[C@]2(CO)CC[C@]3(C)[C@H](CC[C@@H]4[C@@]5(C)CC[C@H](O)C(C)(C)[C@@H]5CC[C@]43C)[C@@H]12 | 250 | – | – | – | – | – | –
CC=C[C@H](O)CCCC | – | 175 | – | – | – | – | –

SMILES | melting point [°C] | boiling point [°C] | log10 Henry constant (atm·m³/mol) | log10 vapour pressure (mmHg) | ready biodegradability | log10 Koa | log10 Koc (L/kg)
N#Cc1cccc(C=O)c1 | 76.5 | 210 | – | – | – | – | –
O=C(O)c1ccc(I)cc1 | 270 | – | – | – | – | – | –
CC(C)C(C)c1ccccc1 (stereo not drawn) | – | 187 | – | – | – | – | –
CCNc1ccc(C)cc1 | – | 217 | – | – | not readily biodegradable | – | –
CCCC(C)(C)C(=O)Nc1ccc(Cl)cc1 | 87.5 | – | – | – | – | – | –
CCNc1cccc2ccccc12 | – | 305 | – | – | not readily biodegradable | – | –
COC1=C[C@H](C)[C@H]2C[C@H]3OC(O)C[C@H]4C(C)=C(OC)C(=O)C([C@@]34C)[C@@]2(C)C1=O (stereo partly drawn) | 227 | – | – | – | – | – | –
CCC(=O)O[C@H]([C@H](C)[C@H]1O[C@@]2(CC[C@@](C)([C@H]3CC[C@@](C)(C4O[C@@H]([C@H]5O[C@@](O)(CO)[C@H](C)C[C@@H]5C)C[C@@H]4C)O3)O2)C[C@H](O)[C@H]1C)[C@@H](C)C(=O)O (stereo partly drawn) | 152 | – | – | – | – | – | –
Nc1ccc(/N=N/c2ccc(N)cc2)cc1 | 250 | – | – | – | – | – | –
CCC(O)CCC(F)(F)F (stereo not drawn) | – | 141 | – | – | – | – | –
Cc1ccc(C=O)c(O)c1 | 60.5 | 223 | – | – | – | – | –
O=C(O)COc1cccc2ccccc12 | 196 | – | – | – | – | – | –
CCCCCCCCCCCCCC(=O)Cl | -1 | – | – | – | – | – | –
O=S(=O)(Cl)c1c(F)c(F)c(F)c(F)c1F | – | 210 | – | – | – | – | –
CNC(=O)c1cccnc1 | 104 | – | – | – | – | – | –
COc1ccccc1[N+](=O)[O-] | 10.5 | 277 | – | -2.44 | not readily biodegradable | – | –
Clc1cc2oc3c(Cl)cc(Cl)c(Cl)c3c2cc1Cl | 237 | – | – | -8.82 | – | – | –
CCOS(C)(=O)=O | – | 214 | – | -0.686 | – | – | –
CC/C=C\CO | – | 138 | – | – | – | – | –

same assay, conditions: fish

SMILES | log10 BCF | log10 biotransformation half-life (days)
CCCN(CCC)c1c([N+](=O)[O-])cc(C(F)(F)F)cc1[N+](=O)[O-] | 3.36 | 0.62
C1=CCCC=CCCC=CCC1 | 3.92 | 1.74
Clc1ccc(-c2c(Cl)ccc(Cl)c2Cl)cc1 | – | 2.35
Nc1cccc(Cl)c1 | 0.35 | -0.71
Nc1ccccc1Cl | 0.95 | -0.61
CCNc1ccc(C)cc1 | 0.61 | –
CCNc1cccc2ccccc12 | 2.32 | 0.43
COc1ccccc1[N+](=O)[O-] | 0.7 | -1.04
